Structures can show the parent of a compound that is named as a salt. Bounds are passed on as bounds.

The subject of test [1] is IL-1β release upon NLRP3 activation in peripheral blood mononuclear cells (PBMC). The test is described as follows: PBMC IC50 Determination Assay. Type of test: cell-based. Conditions: Homo sapiens; inhibition of IL-1β release; LPS-primed PBMC stimulated with ATP or nigericin. Here is the method: The compounds of the present disclosure were tested for their inhibitory activity against IL-1β release upon NLRP3 activation in peripheral blood mononuclear cells (PBMC).
Protocol A. PBMC were isolated from buffy coats by density gradient centrifugation on Histopaque-1077 (Sigma, cat no. 10771). Isolated cells were seeded into the wells of a 96-well plate and incubated for 3 h with lipopolysaccharide (LPS). Following medium exchange, the compounds of the present disclosure were added (a single compound per well) and the cells were incubated for 30 min. Next, the cells were stimulated either with ATP (5 mM) or nigericin (10 μM) for 1 h and the cell culture media from the wells were collected for further analysis.
The release of IL-1β into the media was determined by a quantitative detection of IL-1β in the media using an IL-1β enzyme-linked immunosorbent assay (ELISA) Ready-SET-Go!, eBioscience cat. No. 88-7261-88. Briefly, in a first step, high affinity binding plates (Corning, Costar 9018 or NUNC Maxisorp Cat No. 44-2404) were coated overnight at 4° C. with specific capture antibody included in the kit (anti-human IL-1β ref. 14-7018-68). Subsequently, plates were blocked with blocking buffer for 1 h at room temperature (rt) and after washing with a buffer (PBS with 0.05% Tween-20) incubated with protein standard and culture media. After 2 h of incubation at rt, plates were washed and incubated with biotinylated detection antibody included in the kit (anti-human IL-1β Biotin ref. 33-7110-68) for 1 h at rt. Plates were washed and incubated with HRP-streptavidin for 30 min at rt and washed again. The signal was developed after addition of 3,3′,5,5′-tetramethylbenzidine-peroxidase (TMB) until colour appeared and the reaction was stopped by 2 M H2SO4. A microplate spectrophotometer (BioTek) was used to detect signals with 450 nm. The detection range of IL-1β ELISA was […].
Protocol B. PBMC were isolated from buffy coats by density gradient centrifugation on Histopaque-1077 (Sigma, cat no. 10771). Isolated cells were seeded into the wells (280,000 cells/well) of a 96-well plate and incubated for 3 h with lipopolysaccharide (LPS, 1 μg/mL diluted 1000× from a 1 mg/mL stock solution). The compounds of the present disclosure were added (a single compound per well) and the cells were incubated for 30 min. Next, the cells were stimulated with ATP (5 mM final concentration diluted 20× from a 100 mM stock solution) for 1 h and the cell culture media from the wells were collected for further analysis.
The release of IL-1β into the media was determined by quantitative detection of IL-1β in the media using HTRF®, CisBio cat. No. 62HIL1BPEH. Briefly, cell culture supernatant were dispensed directly into the assay plate containing antibodies labelled with the HTRF® donor and acceptor. A microplate spectrophotometer (BMG) was used to detect signals at 655 nm and 620 nm. The detection range of IL-1β HTRF® was 39-6500 μg/mL.

The test system of the next test is THP-1. The test is described as follows: THP-1 IC50 assay. The following applies: Homo sapiens; THP-1 cells. Type of test: cell-based.

Regarding `Cc1cc(OC(F)(F)F)cc(O)c1-c1ccc(CNC2CCOCC2)nn1` [Compound 30, 3-Methyl-2-(6-(((tetrahydro-2H-pyran-4-yl)amino)methyl)pyridazin-3-yl)-5-(trifluoromethoxy)phenol], the IC50 (in test [1]; in the test with THP-1) was 3000 to 10000 nM each time.

Regarding `Cc1cc(NCc2ccc(-c3c(C)cc(C(F)(F)F)cc3O)nn2)no1` [Compound 31, 3-Methyl-2-(6-(((5-methylisoxazol-3-yl)amino)methyl)pyridazin-3-yl)-5-(trifluoromethyl)phenol], the figures for the concentration for half-maximal inhibition (IC50) (in test [1]; in the test with THP-1) were under 500 nM and 1000 to 3000 nM, respectively.

As for `Cc1cc(C(F)(F)F)cc(O)c1-c1ccc(CN[C@@H]2CCOC2)nn1` [Compound 32, (R)-3-Methyl-2-(6-(((tetrahydrofuran-3-yl)amino)methyl)pyridazin-3-yl)-5-(trifluoromethyl)phenol], the IC50 (usually the midpoint of a concentration-inhibition curve) is under 500 nM in test [1] and 500 to 1000 nM with THP-1.

Turning to `Cc1cc(C(F)(F)F)cc(O)c1-c1ccc(CN[C@H]2CCOC2)nn1` [Compound 33, (S)-3-methyl-2-(6-(((tetrahydrofuran-3-yl)amino)methyl)pyridazin-3-yl)-5-(trifluoromethyl)phenol], the IC50 (in test [1]; in the test with THP-1) was under 500 nM throughout.

With `Cc1cc(C(F)(F)F)cc(O)c1-c1ccc(CN2CC[C@@H](F)C2)nn1` [Compound 34, (R)-2-(6-((3-Fluoropyrrolidin-1-yl)methyl)pyridazin-3-yl)-3-methyl-5-(trifluoromethyl)phenol], the IC50 (in test [1]; in the test with THP-1) was 1000 to 3000 nM throughout.

Consider `Cc1cc(C(F)(F)F)cc(O)c1-c1ccc(CN2CC[C@H](F)C2)nn1` [Compound 35, (S)-2-(6-((3-Fluoropyrrolidin-1-yl)methyl)pyridazin-3-yl)-3-methyl-5-(trifluoromethyl)phenol], for which the IC50 (in test [1]; with THP-1) was 500 to 1000 nM each time.

`Oc1cc(Cl)cc(Cl)c1-c1ccc(CNC2CCOCC2)nn1` [Compound 36, 3,5-Dichloro-2-(6-(((tetrahydro-2H-pyran-4-yl)amino)methyl)pyridazin-3-yl)phenol]: the results for the IC50 (in test [1]; with THP-1) were 500 to 1000 nM and 1000 to 3000 nM, respectively.

Turning to `Cc1cc(C(F)(F)F)cc(O)c1-c1ccc(CN[C@@H]2CCN(C)C(=O)C2)nn1` [Compound 37, (R)-4-(((6-(2-Hydroxy-6-methyl-4-(trifluoromethyl)phenyl)pyridazin-3-yl)methyl)amino)-1-methylpiperidin-2-one], the half-inhibitory concentration (IC50) in test [1] was 500 to 1000 nM; in the test on THP-1, 1000 to 3000 nM.

`Cc1cc(C(F)(F)F)cc(O)c1-c1ccc(CN2CCC(F)(F)C2)nn1` [Compound 38, 2-(6-((3,3-Difluoropyrrolidin-1-yl)methyl)pyridazin-3-yl)-3-methyl-5-(trifluoromethyl)phenol]: the half-inhibitory concentration (IC50) is under 500 nM in test [1] and 500 to 1000 nM with THP-1.

For `CO[C@@H]1CCN(Cc2ccc(-c3c(C)cc(C(F)(F)F)cc3O)nn2)C1` [Compound 39, (R)-2-(6-((3-Methoxypyrrolidin-1-yl)methyl)pyridazin-3-yl)-3-methyl-5-(trifluoromethyl)phenol], the IC50 in test [1] fell in the range of 500 to 1000 nM; with THP-1, 1000 to 3000 nM.

Consider `CO[C@H]1CCN(Cc2ccc(-c3c(C)cc(C(F)(F)F)cc3O)nn2)C1` [Compound 40, (S)-2-(6-((3-Methoxypyrrolidin-1-yl)methyl)pyridazin-3-yl)-3-methyl-5-(trifluoromethyl)phenol], for which the IC50 in test [1] was 500 to 1000 nM; in the test with THP-1 it was 1000 to 3000 nM.

For the compound `Cc1cc(C(F)(F)F)cc(O)c1-c1ccc(COC2CCCN(C)C2)nn1` (stereo not shown) [Compound 41, 3-Methyl-2-(6-(((1-methylpiperidin-3-yl)oxy)methyl)pyridazin-3-yl)-5-(trifluoromethyl)phenol hydrochloride], the figures for the IC50 (in test [1]; in the test with THP-1) were 500 to 1000 nM and 1000 to 3000 nM, respectively.

For `Oc1cc(C(F)(F)F)cc(F)c1-c1ccc(CNC2CCOCC2)nn1` [Compound 42, 3-Fluoro-2-(6-(((tetrahydro-2H-pyran-4-yl)amino)methyl)pyridazin-3-yl)-5-(trifluoromethyl)phenol], the IC50 (in test [1]; in the test with THP-1) was 3000 to 10000 nM throughout.

As to `Cc1cc(C(F)(F)F)cc(O)c1-c1ccc(CN[C@@H]2CCC(=O)N(C)C2)nn1` [Compound 43, (R)-5-(((6-(2-Hydroxy-6-methyl-4-(trifluoromethyl)phenyl)pyridazin-3-yl)methyl)amino)-1-methylpiperidin-2-one], the IC50 is under 500 nM in test [1] and 500 to 1000 nM in the test with THP-1.

As for `Cc1cc(C(F)(F)F)cc(O)c1-c1ccc(CN2CCOC2=O)nn1` [Compound 44, 3-((6-(2-Hydroxy-6-methyl-4-(trifluoromethyl)phenyl)pyridazin-3-yl)methyl)oxazolidin-2-one], the IC50 was under 500 nM in test [1] and 500 to 1000 nM with THP-1.

As for `Cc1cc(C(F)(F)F)cc(O)c1-c1ccc(COC2CCN(C)CC2)nn1` [Compound 45, 3-Methyl-2-(6-(((1-methylpiperidin-4-yl)oxy)methyl)pyridazin-3-yl)-5-(trifluoromethyl)phenol hydrochloride], the IC50 (in test [1]; in the test with THP-1) was 1000 to 3000 nM in each case.

Turning to `Cc1cc(C(F)(F)F)cc(O)c1-c1ccc(CN2CC(C)CC2=O)nn1` (stereo not shown) [Compound 46, 1-((6-(2-Hydroxy-6-methyl-4-(trifluoromethyl)phenyl)pyridazin-3-yl)methyl)-4-methylpyrrolidin-2-one], the IC50 (in test [1]; with THP-1) was 1000 to 3000 nM each time.

`Cc1cc(C(F)(F)F)cc(O)c1-c1ccc(CN2C(=O)CCC2(C)C)nn1` [Compound 47, 1-((6-(2-Hydroxy-6-methyl-4-(trifluoromethyl)phenyl)pyridazin-3-yl)methyl)-5,5-dimethylpyrrolidin-2-one]: the IC50 in test [1] lay within 1000 to 3000 nM; in the test on THP-1, 3000 to 10000 nM.

Take `Cc1cc(C2CC2)cc(O)c1-c1ccc(CNC2CCOCC2)nn1` [Compound 48, 5-Cyclopropyl-3-methyl-2-(6-(((tetrahydro-2H-pyran-4-yl)amino)methyl)pyridazin-3-yl)phenol]: the IC50 (in test [1]; in the test with THP-1) was 1000 to 3000 nM throughout.

For the compound `Cc1cc(C(F)(F)F)cc(O)c1-c1ccc(CN[C@H]2CC(=O)N(C)C2)nn1` [Compound 49, (S)-4-(((6-(2-Hydroxy-6-methyl-4-(trifluoromethyl)phenyl)pyridazin-3-yl)methyl)amino)-1-methylpyrrolidin-2-one], the IC50 (in test [1]; in the test on THP-1) was under 500 nM in each case.

Take `Cc1cc(C(F)(F)F)cc(O)c1-c1ccc(CN[C@@H]2CC(=O)N(C)C2)nn1` [Compound 50, (R)-4-(((6-(2-Hydroxy-6-methyl-4-(trifluoromethyl)phenyl)pyridazin-3-yl)methyl)amino)-1-methylpyrrolidin-2-one]: the IC50 in test [1] lay in the range of 1000 to 3000 nM; with THP-1, 3000 to 10000 nM.

With `Cc1cc(C(F)(F)F)cc(O)c1-c1ccc(CNc2c(C)noc2C)nn1` [Compound 51, 2-(6-(((3,5-Dimethylisoxazol-4-yl)amino)methyl)pyridazin-3-yl)-3-methyl-5-(trifluoromethyl)phenol], the IC50 was 500 to 1000 nM in test [1] and 1000 to 3000 nM in the test with THP-1.

`Cc1cc(F)cc(O)c1-c1ccc(CNC2CCOCC2)nn1` [Compound 52, 5-Fluoro-3-methyl-2-(6-(((tetrahydro-2H-pyran-4-yl)amino)methyl)pyridazin-3-yl)phenol]: the IC50 (in test [1]; with THP-1) was 3000 to 10000 nM throughout.

In the case of `Cc1cc(Cl)cc(O)c1-c1ccc(CN[C@@H]2CCOC2)nn1` [Compound 53, (R)-5-Chloro-3-methyl-2-(6-(((tetrahydrofuran-3-yl)amino)methyl)pyridazin-3-yl)phenol], the IC50 (in test [1]; in the test on THP-1) was under 500 nM each time.

On to `Cc1cc(Cl)cc(O)c1-c1ccc(CN2CCCC2)nn1` [Compound 54, 5-Chloro-3-methyl-2-(6-(pyrrolidin-1-ylmethyl)pyridazin-3-yl)phenol], for which the IC50 was under 500 nM in test [1] and 500 to 1000 nM in the test on THP-1.

For the compound `Cc1cc(C(F)(F)F)cc(O)c1-c1ccc(CNc2conc2C)nn1` [Compound 55, 3-Methyl-2-(6-(((3-methylisoxazol-4-yl)amino)methyl)pyridazin-3-yl)-5-(trifluoromethyl)phenol], the IC50 (in test [1]; in the test on THP-1) was 500 to 1000 nM each time.

The values above are taken from patent US20250115558A1, “PYRIDAZINE DERIVATIVES AND RELATED USES” (NodThera Limited, priority 2023, published 2025).
